Measurements as given in ChEMBL document CHEMBL5214900, “Design, Synthesis, and Biological Evaluation of Membrane-Active Bakuchiol Derivatives as Effective Broad-Spectrum Antibacterial Agents” (J Med Chem, 2021).
≈ marks a conversion by molar mass, not a printed value.

Experiments:
[1] = system: Staphylococcus aureus; test: Antibacterial activity against Staphylococcus aureus ATCC 29213 assessed as fold increase in MIC incubated for 24 hrs in presence of 140 mM Na+ by CLSI based broth dilution method; format: functional
[2] = system: Staphylococcus aureus; test: Bactericidal activity against Staphylococcus aureus ATCC 29213 assessed as bacterial killing at 8 times MIC measured after 8 hrs by time-killing assay relative to control; format: functional
[3] = system: Staphylococcus aureus; test: Antibacterial activity against Staphylococcus aureus ATCC 29213 in C57BL/6 mouse model of bacterial keratitis assessed as log reduction in number of viable bacterial colonies in infected cornea at 0.8 mg/ml, TOP administered 4 times a day for 3 consecutive days; format: functional; conditions: time 3 day
[4] = system: Staphylococcus aureus; test: Antibacterial activity against Staphylococcus aureus NCTC10442 assessed as fold increase in MIC incubated for 24 hrs in presence of 2.5 mM Ca2+ by CLSI based broth dilution method; format: functional
[5] = system: Staphylococcus aureus; test: Antibacterial activity against Staphylococcus aureus ATCC 29213 assessed as fold increase in MIC incubated for 24 hrs in presence of 4.5 mM K+ by CLSI based broth dilution method; format: functional
[6] = system: Staphylococcus aureus; test: Antibiofilm activity against Staphylococcus aureus ATCC 29213 assessed reduction in biofilm formation at 3.125 ug/ml measured after 24 hrs by crystal violet staining based assay relative to control; format: functional; parameters: scale not given: the % may be the effect or the level left; conditions: dose 3.125 µg/ml
[7] = system: Escherichia coli; test: Antibacterial activity against Escherichia coli ATCC 25922 assessed as eradication of preformed bacterial biofilm by measuring residual biofilm viability at 0.78 ug/ml incubated for 24 hrs by crystal violet staining based assay relative to control; format: functional; conditions: dose 0.78 µg/ml
[8] = system: Staphylococcus aureus; test: Antibiofilm activity against Staphylococcus aureus ATCC 29213 assessed reduction in biofilm formation at […] ug/ml measured after 24 hrs by crystal violet staining based assay relative to control; format: functional; parameters: scale not given: the % may be the effect or the level left; conditions: dose […] microg/ml, 1.56 ug/mL
[9] = system: Staphylococcus aureus; test: Antibacterial activity against methicillin-resistant Staphylococcus aureus NCTC10442 assessed as inhibition of bacterial growth incubated for 24 hrs by CLSI based broth dilution method; format: functional
[10] = Cytotoxicity against HEK293 cells assessed as cell viability at 6.25 ug/ml incubated for 24 hrs by CCK-8 assay relative to control; format: toxicity, cell-based; conditions: human, at 6.25 µg/mL, read-out: Activity
[11] = system: Escherichia coli; test: Antibiofilm activity against Escherichia coli ATCC 25922 assessed reduction in biofilm formation at 6.25 ug/ml measured after 24 hrs by crystal violet staining based assay relative to control; format: functional; parameters: scale not given: the % may be the effect or the level left; conditions: dose 6.25 µg/ml
[12] = system: Staphylococcus aureus; test: Antibacterial activity against Staphylococcus aureus ATCC 29213 assessed as eradication of preformed bacterial biofilm by measuring residual biofilm viability at […] ug/ml incubated for 24 hrs by crystal violet staining based assay relative to control; format: functional; conditions: dose […] microg/ml, 1.56 ug/mL
[13] = system: Staphylococcus aureus; test: Antibacterial activity against Staphylococcus aureus ATCC 29213 assessed as eradication of preformed bacterial biofilm by measuring residual biofilm viability at 12.5 ug/ml incubated for 24 hrs by crystal violet staining based assay relative to control; format: functional; conditions: dose 12.5 µg/ml
[14] = Cytotoxicity against HEK293 cells assessed as cell viability at 12.5 ug/ml incubated for 24 hrs by CCK-8 assay relative to control; format: toxicity, cell-based; conditions: human, at 12.5 µg/mL, read-out: Activity
[15] = system: Staphylococcus aureus; test: Antibacterial activity against Staphylococcus aureus NCTC10442 assessed as fold increase in MIC incubated for 24 hrs in presence of 140 mM Na+ by CLSI based broth dilution method; format: functional
[16] = system: Escherichia coli; test: Antibacterial activity against Escherichia coli ATCC 25922 assessed as fold increase in MIC incubated for 24 hrs in presence of 2.5 mM Ca2+ by CLSI based broth dilution method; format: functional
[17] = system: Acinetobacter baumannii; test: Antibacterial activity against Acinetobacter baumannii R2889 assessed as inhibition of bacterial growth incubated for 24 hrs by CLSI based broth dilution method; format: functional
[18] = system: Staphylococcus aureus; test: Antibiofilm activity against Staphylococcus aureus ATCC 29213 assessed reduction in biofilm formation at 6.25 ug/ml measured after 24 hrs by crystal violet staining based assay relative to control; format: functional; parameters: scale not given: the % may be the effect or the level left; conditions: dose 6.25 µg/ml
[19] = Cytotoxicity against mouse NCTC clone 929 cells assessed as cell viability at 50 ug/ml incubated for 24 hrs by CCK-8 assay relative to control; format: toxicity, cell-based; conditions: at 50 µg/mL, read-out: Activity
[20] = Cytotoxicity against mouse NCTC clone 929 cells assessed as cell viability at 3.125 ug/ml incubated for 24 hrs by CCK-8 assay relative to control; format: toxicity, cell-based; conditions: at 3.125 µg/mL, read-out: Activity
[21] = system: Acinetobacter baumannii; test: Antibacterial activity against Acinetobacter baumannii ATCC 17978 assessed as fold increase in MIC incubated for 24 hrs in presence of 2.5 mM Ca2+ by CLSI based broth dilution method; format: functional
[22] = system: Escherichia coli; test: Induction of drug resistance in Escherichia coli ATCC 25922 assessed as fold change in MIC measured after 19 passages by CLSI based broth dilution method; format: functional
[23] = system: Staphylococcus aureus; test: Bactericidal activity against Staphylococcus aureus ATCC 29213 assessed as log reduction in viable bacteria at 8 times MIC measured after 8 hrs by time-killing assay; format: functional
[24] = Toxicity in C57BL/6 mouse assessed as signs of toxicity in cornea at 0.8 mg/ml, TOP administered 4 times a day for 3 consecutive days; conditions: in vivo, topical_or_ocular, 72 h, time 3 day
[25] = system: Staphylococcus aureus; test: Induction of cell death in Staphylococcus aureus ATCC 29213 assessed as residual living cells at 8 times MIC incubated for 2 hrs by SYTO 9/PI staining based fluorescence analysis relative to control; format: functional
[26] = system: Staphylococcus aureus; test: Antibiofilm activity against Staphylococcus aureus ATCC 29213 assessed reduction in biofilm formation at 0.39 ug/ml measured after 24 hrs by crystal violet staining based assay relative to control; format: functional; parameters: scale not given: the % may be the effect or the level left; conditions: dose 0.39 µg/ml
[27] = system: Escherichia coli; test: Antibacterial activity against Escherichia coli ATCC 25922 assessed as eradication of preformed bacterial biofilm by measuring residual biofilm viability at 25 ug/ml incubated for 24 hrs by crystal violet staining based assay relative to control; format: functional; conditions: dose 25 µg/ml
[28] = system: Escherichia coli; test: Antibacterial activity against Escherichia coli ATCC 25922 assessed as eradication of preformed bacterial biofilm by measuring residual biofilm viability at 12.5 ug/ml incubated for 24 hrs by crystal violet staining based assay relative to control; format: functional; conditions: dose 12.5 µg/ml
[29] = system: Staphylococcus aureus; test: Antibacterial activity against Staphylococcus aureus NCTC10442 assessed as fold increase in MIC incubated for 24 hrs in presence of 1 mM Mg2+ by CLSI based broth dilution method; format: functional
[30] = system: Cell membrane; test: Disruption of membrane integrity in Pseudomonas aeruginosa ATCC 9027 assessed as increase in fluorescence intensity at 1 to 8 times MIC by SYTOX green dye based fluorescence analysis; format: subcellular; conditions: DDE = dose-dependent effect
[31] = Cytotoxicity against mouse NCTC clone 929 cells assessed as cell viability at 25 ug/ml incubated for 24 hrs by CCK-8 assay relative to control; format: toxicity, cell-based; conditions: at 25 µg/mL, read-out: Activity
[32] = system: Escherichia coli; test: Antibiofilm activity against Escherichia coli ATCC 25922 assessed reduction in biofilm formation at 3.125 ug/ml measured after 24 hrs by crystal violet staining based assay relative to control; format: functional; parameters: scale not given: the % may be the effect or the level left; conditions: dose 3.125 µg/ml

In the case of `C=C[C@@](C)(/C=C/c1ccc(OCCCCN(CCCN(C)C)CCCN(C)C)cc1)CCC=C(C)C`, the “fold change (FC)” value [1] was under 2, the Activity [2] was “>=99.9%” and the “log(activity)” value [3] was 5.7. The “fold change (FC)” value [4] was under 2, the “fold change (FC)” value [5] was under 2 and the Activity [6] was 96.53%. It also gave an Activity [7] of 91.55%, an Activity [8] of 42.21% and an MIC [9] of 1.56 µg/mL (≈ 3.13 µM). It also gave a viability at 24 h, 6.25 ug/ml [10] of 93.8%, an Activity [11] of 95.7% and an Activity [12] of 75.68%. The Activity [13] was 24.19%, the viability at 24 h, 12.5 ug/ml [14] was 84.9% and the “fold change (FC)” value [15] was under 2. The “fold change (FC)” value [16] was under 2, the MIC [17] was 3.12 µg/mL (≈ 6.28 µM) and the Activity [18] was 98.78%. The viability at 24 h, 50 ug/ml [19] was 36%, the viability at 24 h, 3.125 ug/ml [20] was 88.9% and the “fold change (FC)” value [21] was under 2. For the same compound, the fold change (FC) [22] was under 4, the “log(activity)” value [23] was 3.52 and the Activity [24] was “Non-Toxic”. For the same compound, the Activity [25] was 2.2%, the Activity [26] was 1.65% and the Activity [27] was 2.38%. For the same compound, the Activity [28] was 10.78%, the “fold change (FC)” value [29] was under 2 and the Activity [30] was “Dde”. For the same compound, the viability at 24 h, 25 ug/ml [31] was 74.1% and the Activity [32] was 92.62%.
